In PubChem BioAssay AID330 (DTP/NCI, 2004):
Several values for one entry are separate records, joined by “and”; a condition that tells them apart may be missing. Identical values can stand only once. Toxic doses and inconclusive results are not listed.

Test system: P388 leukemia ip, CD2F1 mice, survival T/C
Assay: NCI In Vivo Anticancer Drug Screen. Data for tumor model P388 Leukemia (intraperitoneal) in CD2F1 (CDF1) mice
Conditions: endpoint: median survival time, higher = longer survival
Procedure, shortened: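 Mice carrying the transplanted tumor received test compound or vehicle. Survival was recorded in each group, and the value is the treated-group measurement divided by that of the vehicle-treated control group.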

[1] = dose: 6.25 mg/kg/injection, schedule: Q01DX009 (ip), vehicle: saline
[2] = dose: 50.0 mg/kg/injection, schedule: Q01DX005 (ip), vehicle: Klucel (hydroxypropylcellulose) (HPC)
[3] = dose: 100.0 mg/kg/injection, schedule: Q01DX005 (ip), vehicle: Klucel (hydroxypropylcellulose) (HPC)
[4] = dose: 200.0 mg/kg/injection, schedule: Q01DX005 (ip), vehicle: Klucel (hydroxypropylcellulose) (HPC)
[5] = dose: 50.0 mg/kg/injection, schedule: Q01DX009 (ip), vehicle: saline with Tween-80
[6] = dose: 100.0 mg/kg/injection, schedule: Q01DX009 (ip), vehicle: saline with Tween-80
[7] = dose: 25.0 mg/kg/injection, schedule: Q01DX005 (ip), vehicle: saline
[8] = dose: 50.0 mg/kg/injection, schedule: Q01DX005 (ip), vehicle: saline
[9] = dose: 60.0 mg/kg/injection, schedule: Q01DX005 (ip), vehicle: Klucel (hydroxypropylcellulose) (HPC)
[10] = dose: 120.0 mg/kg/injection, schedule: Q01DX005 (ip), vehicle: Klucel (hydroxypropylcellulose) (HPC)
[11] = dose: 240.0 mg/kg/injection, schedule: Q01DX005 (ip), vehicle: Klucel (hydroxypropylcellulose) (HPC)
[12] = dose: 100.0 mg/kg/injection, schedule: Q04DX003 (ip), vehicle: saline with Tween-80
[13] = dose: 200.0 mg/kg/injection, schedule: Q04DX003 (ip), vehicle: saline with Tween-80
[14] = dose: 400.0 mg/kg/injection, schedule: Q04DX003 (ip), vehicle: saline with Tween-80
[15] = dose: 60.0 mg/kg/injection, schedule: Q01DX005 (ip), vehicle: saline
[16] = dose: 50.0 mg/kg/injection, schedule: Q01DX005 (ip), vehicle: saline with Tween-80
[17] = dose: 100.0 mg/kg/injection, schedule: Q01DX005 (ip), vehicle: saline with Tween-80
[18] = dose: 200.0 mg/kg/injection, schedule: Q01DX005 (ip), vehicle: saline with Tween-80

## CC12CC3OC(=O)C1COC14OC5(C2C1=O)C(O)(CCC1C4CC(O)C2(O)CC=CC(=O)C12C)C(=O)OC35C (stereo not drawn)
dose: 12.0 mg/kg/injection, schedule: Q01DX009 (ip), vehicle: Klucel (hydroxypropylcellulose) (HPC)
  T/C: 94 % of control
dose: 24.0 mg/kg/injection, schedule: Q01DX009 (ip), vehicle: Klucel (hydroxypropylcellulose) (HPC)
  T/C: 110 % of control
dose: 48.0 mg/kg/injection, schedule: Q01DX009 (ip), vehicle: Klucel (hydroxypropylcellulose) (HPC)
  T/C: 109 % of control

## Cc1cc(N)cc(N)c1O
dose: 1.56 mg/kg/injection, schedule: Q01DX009 (ip), vehicle: saline
  T/C: 97 % of control
dose: 3.12 mg/kg/injection, schedule: Q01DX009 (ip), vehicle: saline
  T/C: 95 % of control
[1]
  T/C: 97 % of control

## COC(=O)CC(c1ccccc1)C1(c2ccc3c(c2)OCO3)SCCCS1 (stereo not drawn)
dose: 100.0 mg/kg/injection, schedule: Q01DX001 (ip), vehicle: saline with Tween-80
  T/C: 92 % of control
dose: 200.0 mg/kg/injection, schedule: Q01DX001 (ip), vehicle: saline with Tween-80
  T/C: 90 % of control

## CC(O)COc1ccccc1P(c1ccccc1)c1ccccc1 (stereo not drawn)
dose: 25.0 mg/kg/injection, schedule: Q01DX005 (ip), vehicle: Klucel (hydroxypropylcellulose) (HPC)
  T/C: 104 % of control and 95 % of control
[2]
  T/C: 104 % of control and 109 % of control and 97 % of control
[3]
  T/C: 101 % of control and 109 % of control and 91 % of control
[4]
  T/C: 104 % of control and 92 % of control

## CNC(=O)O/N=C/c1ccccc1-c1ccccc1
[5]
  T/C: 97 % of control
[6]
  T/C: 86 % of control

## CC(=O)Nc1ccsc1
[7]
  T/C: 102 % of control
[8]
  T/C: 104 % of control
dose: 100.0 mg/kg/injection, schedule: Q01DX005 (ip), vehicle: saline
  T/C: 109 % of control

## CCOC(=O)Nc1cc(NC/C(=N\O)c2ccc3ccccc3c2)c([N+](=O)[O-])c(N)n1
[9]
  T/C: 100 % of control
[10]
  T/C: 100 % of control
[11]
  T/C: 96 % of control

## COc1cccc2c1C(=O)c1c(OC)c(CSC(=N)N)cc(OC)c1C2=O
dose: 2.0 mg/kg/injection, schedule: Q01DX009 (ip), vehicle: water
  T/C: 99 % of control
dose: 4.0 mg/kg/injection, schedule: Q01DX009 (ip), vehicle: water
  T/C: 104 % of control
dose: 8.0 mg/kg/injection, schedule: Q01DX009 (ip), vehicle: water
  T/C: 104 % of control
dose: 16.0 mg/kg/injection, schedule: Q01DX009 (ip), vehicle: water
  T/C: 117 % of control
dose: 32.0 mg/kg/injection, schedule: Q01DX009 (ip), vehicle: water
  T/C: 121 % of control
dose: 64.0 mg/kg/injection, schedule: Q01DX009 (ip), vehicle: water
  T/C: 111 % of control

## COc1ccc(C(C)N(C)C)cc1 (stereo not drawn)
dose: 50.0 mg/kg/injection, schedule: Q01DX001 (ip), vehicle: other
  T/C: 101 % of control
dose: 100.0 mg/kg/injection, schedule: Q01DX001 (ip), vehicle: other
  T/C: 99 % of control and 103 % of control
dose: 200.0 mg/kg/injection, schedule: Q01DX001 (ip), vehicle: other
  T/C: 98 % of control

## CCOC1(C)Oc2cc3c(cc2C(c2cc(OC)c(OC)c(OC)c2)C1C)OCO3 (stereo not drawn)
[9]
  T/C: 96 % of control
[10]
  T/C: 100 % of control
[11]
  T/C: 98 % of control

## O=C1NC(c2ccccc2)(c2ccccc2)C(=O)N1CN1CCc2ccccc2C1
[9]
  T/C: 90 % of control
[10]
  T/C: 91 % of control
[11]
  T/C: 90 % of control

## O=C(c1ccc(Cl)cc1)n1c(Cl)c(/C=N\Nc2ccccc2[N+](=O)[O-])c2ccccc21
[12]
  T/C: 93 % of control
[13]
  T/C: 90 % of control
[14]
  T/C: 92 % of control

## O=C(O)/C=C\C(=O)Nc1ccccc1NC(=O)/C=C/C(=O)O
dose: 100.0 mg/kg/injection, schedule: Q04DX003 (ip), vehicle: saline
  T/C: 91 % of control
dose: 200.0 mg/kg/injection, schedule: Q04DX003 (ip), vehicle: saline
  T/C: 100 % of control
dose: 400.0 mg/kg/injection, schedule: Q04DX003 (ip), vehicle: saline
  T/C: 87 % of control

## CC(C)Oc1nc(N2CCNCC2)nc2c1CCC2
dose: 15.0 mg/kg/injection, schedule: Q01DX005 (ip), vehicle: saline
  T/C: 101 % of control
dose: 30.0 mg/kg/injection, schedule: Q01DX005 (ip), vehicle: saline
  T/C: 94 % of control
[15]
  T/C: 101 % of control

## CC(=O)OCC(Br)C(Br)COC(C)=O (stereo not drawn)
[12]
  T/C: 100 % of control
[13]
  T/C: 100 % of control
[14]
  T/C: 100 % of control

## c1ccc2c3c(ccc2c1)CC1CCCN1C3 (stereo not drawn)
dose: 100.0 mg/kg/injection, schedule: Q04DX003 (ip), vehicle: Klucel (hydroxypropylcellulose) (HPC)
  T/C: 100 % of control
dose: 200.0 mg/kg/injection, schedule: Q04DX003 (ip), vehicle: Klucel (hydroxypropylcellulose) (HPC)
  T/C: 103 % of control

## CC(=O)OC1CC(n2cc(C)c(=O)[nH]c2=O)OC1COP(=O)(N1CC1)N1CC1 (stereo not drawn)
dose: 25.0 mg/kg/injection, schedule: Q04DX003 (ip), vehicle: saline with Tween-80
  T/C: 104 % of control
dose: 50.0 mg/kg/injection, schedule: Q04DX003 (ip), vehicle: saline with Tween-80
  T/C: 112 % of control
[12]
  T/C: 124 % of control

## CCC1COc2nc(=O)c(C=NCCCN(C)C)c(N)n21 (stereo not drawn)
[15]
  T/C: 100 % of control
dose: 120.0 mg/kg/injection, schedule: Q01DX005 (ip), vehicle: saline
  T/C: 105 % of control
dose: 240.0 mg/kg/injection, schedule: Q01DX005 (ip), vehicle: saline
  T/C: 99 % of control

## COC1=C(OC)C(=O)C(C)(CC=C(C)C)CC1=O (stereo not drawn)
dose: 13.0 mg/kg/injection, schedule: Q01DX009 (ip), vehicle: saline + alcohol
  T/C: 113 % of control
dose: 25.0 mg/kg/injection, schedule: Q01DX009 (ip), vehicle: saline + alcohol
  T/C: 113 % of control
dose: 50.0 mg/kg/injection, schedule: Q01DX009 (ip), vehicle: saline + alcohol
  T/C: 103 % of control

## CC1CC(=O)Nc2cc(C(F)(F)F)ccc2N1 (stereo not drawn)
[2]
  T/C: 95 % of control
[3]
  T/C: 99 % of control
[4]
  T/C: 93 % of control

## O=S(=O)(O)C1CC2C(c3ccccc31)N1ON2O1 (stereo not drawn)
[16]
  T/C: 102 % of control
[17]
  T/C: 100 % of control
[18]
  T/C: 100 % of control

## COC1=CC(=C(c2ccc(O)c(OC)c2)c2ccc(O)c(OC)c2)C=CC1=O
[16]
  T/C: 117 % of control
[17]
  T/C: 119 % of control
[18]
  T/C: 115 % of control

## CCCCCCCCCCCCCCCC(=O)OC(=O)CCCCCCCCCCCCCCC
[5]
  T/C: 100 % of control
[6]
  T/C: 95 % of control
dose: 200.0 mg/kg/injection, schedule: Q01DX009 (ip), vehicle: saline with Tween-80
  T/C: 94 % of control

## CCc1nc(N)nc(N)c1-c1ccc(OC)c([N+](=O)[O-])c1
dose: 120.0 mg/kg/injection, schedule: Q01DX005 (ip), vehicle: saline with Tween-80
  T/C: 151 % of control and 189 % of control
dose: 480.0 mg/kg/injection, schedule: Q01DX005 (ip), vehicle: saline with Tween-80
  T/C: 90 % of control

## CCCCn1cnc(C(=O)OC)c1O (tested in a mixture with another compound)
dose: 100.0 mg/kg/injection, schedule: Q04DX002 (ip), vehicle: water
  T/C: 103 % of control
dose: 200.0 mg/kg/injection, schedule: Q04DX002 (ip), vehicle: water
  T/C: 101 % of control
dose: 400.0 mg/kg/injection, schedule: Q04DX002 (ip), vehicle: water
  T/C: 108 % of control

## C[n+]1cc2ccccc2c2ccccc21
dose: 3.13 mg/kg/injection, schedule: Q01DX009 (ip), vehicle: saline
  T/C: 108 % of control
[1]
  T/C: 117 % of control
dose: 12.5 mg/kg/injection, schedule: Q01DX005 (ip), vehicle: saline
  T/C: 100 % of control
dose: 12.5 mg/kg/injection, schedule: Q01DX009 (ip), vehicle: saline
  T/C: 120 % of control
[7]
  T/C: 110 % of control
dose: 25.0 mg/kg/injection, schedule: Q01DX009 (ip), vehicle: water
  T/C: 122 % of control
[8]
  T/C: 101 % of control
dose: 50.0 mg/kg/injection, schedule: Q01DX009 (ip), vehicle: water
  T/C: 113 % of control
